“And” between values parts separate entries of the source, which are not always exact repeats. Identical values can stand only once. “Also recorded” adds a separate entry of the source. Like-named read-outs stand apart in the source and are kept apart here.
Legend:
West Nile virus (WNV) [1] = settings: Vero cells; for WNV infection: Fig 7
in vitro [2] = settings: African green monkey
West Nile virus (WNV) [3] = assay: microbe, parasite or virus in culture; settings: Vero, 24 h, read-out: EC50 WNV
coxsackievirus B5 (CVB5) = assay: microbe, parasite or virus in culture; assay type: cell-based, CVB5 Faulkner; settings: for EC50: Enterovirus B, Vero, 24 h; for Antiviral efficacy against CVB5: Vero cells
WNV RVPs = assay: Entry of WNV reporter virus particles (RVPs) into Vero cells, flow cytometry; assay type: cell-based, West Nile virus; settings: Vero pretreated 24 h, read 48 h p.i.
West Nile virus (WNV) [4] = assay: Specific infectivity of WNV progeny released from treated Vero cells; assay type: cell-based; settings: vs vehicle
Vero cells [5] = assay: Lipidomics of treated Vero cells by mass spectrometry; assay type: cell-based; settings: 10 μM, 24 h; for Level of dihydrosphingomyelins (dhSMs): relative to control; for dhSM/SM ratio: vs vehicle, almost all dhSMs analyzed
Vero cells [6] = settings: for CC50: read-out: CC50 in uninfected cells, 48-h treatment, Vero cells, ATP, 48 h
West Nile virus (WNV) [7] = settings: SH-SY5Y cells
Usutu virus (USUV) [8] = settings: Vero cells
Zika virus (ZIKV) [9] = settings: Vero cells
dengue virus (DENV-2) [10] = settings: Vero cells
[11] = test system: vesicular stomatitis virus (VSV)
Vero cells [12] = settings: low density, 24 h
in vitro [13] = settings: human
West Nile virus (WNV) [14] = assay: microbe, parasite or virus in culture; settings: SH-SY5Y, 24 h, read-out: EC50 WNV
Usutu virus (USUV) [15] = assay: microbe, parasite or virus in culture; settings: Vero, 24 h, read-out: EC50 USUV
Zika virus (ZIKV) [16] = assay: microbe, parasite or virus in culture; settings: Vero, 24 h, read-out: EC50 ZIKV
dengue virus (DENV-2) [17] = assay: microbe, parasite or virus in culture; settings: DENV2, Vero, 48 h, read-out: EC50 DENV-2
[18] = test system: vesicular stomatitis virus (VSV); assay: microbe, parasite or virus in culture; settings: Vero, 24 h, read-out: EC50 VSV
[19] = target: T1, ceramide desaturase (Des1) (Homo sapiens, UniProt O15121)
T1 sequence (O15121 1-323): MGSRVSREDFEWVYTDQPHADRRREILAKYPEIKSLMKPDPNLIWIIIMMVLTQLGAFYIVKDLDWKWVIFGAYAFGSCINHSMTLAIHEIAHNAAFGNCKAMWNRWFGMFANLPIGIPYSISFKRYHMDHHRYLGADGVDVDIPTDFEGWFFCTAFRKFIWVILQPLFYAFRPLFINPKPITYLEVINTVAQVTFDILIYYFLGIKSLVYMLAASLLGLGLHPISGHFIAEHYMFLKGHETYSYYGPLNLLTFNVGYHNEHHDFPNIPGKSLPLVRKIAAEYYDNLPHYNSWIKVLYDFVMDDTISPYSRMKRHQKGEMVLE

## CCCCCCCCOC(=O)c1cc(O)c(O)c(O)c1 [AL-071]
West Nile virus (WNV) [1]
  SI (CC50/EC50) WNV: 6.6
In vitro [2]
  CC50: 9.2 µM
West Nile virus (WNV) [3]
  EC50: 1.4 µM

## O=C(OCCCCCCCCOC(=O)c1cc(O)c(O)c(O)c1)c1cc(O)c(O)c(O)c1 [AL-072]
West Nile virus (WNV) [1]
  SI (CC50/EC50) WNV: 5.9
In vitro [2]
  CC50: 23.2 µM
West Nile virus (WNV) [3]
  EC50: 3.9 µM

## O=C(OCCCCCCCCCCCCOC(=O)c1cc(O)c(O)c(O)c1)c1cc(O)c(O)c(O)c1 [AL-085]
West Nile virus (WNV) [1]
  SI (CC50/EC50) WNV: 25.0
In vitro [2]
  CC50: 5 µM
West Nile virus (WNV) [3]
  EC50: 0.2 µM

## O=C(NCCCCCCCCCCCCNC(=O)c1cc(O)c(O)c(O)c1)c1cc(O)c(O)c(O)c1 [AL-088, N,N′-(dodecane-1,12-diyl)bis(3,4,5-trihydroxybenzamide)]
Coxsackievirus B5 (CVB5)
  Mean virus yield CVB5: 8.58E+07 PFU/mL and 7.12E+07 PFU/mL and 6.85E+07 PFU/mL and 8.01E+07 PFU/mL and 6.45E+07 PFU/mL and 7.26E+07 PFU/mL and 7.43E+07 PFU/mL and 8.33E+07 PFU/mL
  EC50: > 100 µM
  Antiviral efficacy against CVB5: undetectable; also recorded: no antiviral activity was observed
WNV RVPs
  Number of cells infected with RVPs: significantly reduced the number of infected cells
West Nile virus (WNV) [4]
  Specific infectivity of released WNV particles: significant reduction in their infectivity
Vero cells [5]
  Level of dihydroceramides (dhCers): Significantly elevated levels
  Level of sphingomyelins (SMs): slight reductions
  Level of dihydrosphingomyelins (dhSMs): significant increase
  dhSM/SM ratio: significantly increased
West Nile virus (WNV) [1]
  SI (CC50/EC50) WNV: >45.0
Vero cells [6]
  CC50: > 100 µM
West Nile virus (WNV) [7]
  SI (CC50/EC50) WNV: 39.8
Usutu virus (USUV) [8]
  SI (CC50/EC50) USUV: >125
Zika virus (ZIKV) [9]
  SI (CC50/EC50) ZIKV: >14.9
Dengue virus (DENV-2) [10]
  SI (CC50/EC50) DENV-2: >13.9
[11]
  SI (CC50/EC50) VSV: >4.0
Vero cells [12]
  Effect on proliferation of Vero cells: only cytostatic effects on Vero cells at high concentrations
In vitro [2]
  CC50: > 100 µM
In vitro [13]
  CC50: 87.6 µM
West Nile virus (WNV) [3]
  EC50: 2.2 µM
West Nile virus (WNV) [14]
  EC50: 2.2 µM
Usutu virus (USUV) [15]
  EC50: 0.8 µM
Zika virus (ZIKV) [16]
  EC50: 6.7 µM
Dengue virus (DENV-2) [17]
  EC50: 7.2 µM
[18]
  EC50: 25.3 µM
[19]
  IC50: 1 µM

## O=C(NCCCCCCCCCCCCNC(=O)c1ccc(O)c(O)c1O)c1ccc(O)c(O)c1O [AL-274]
Coxsackievirus B5 (CVB5)
  Mean virus yield CVB5: 9.25E+07 PFU/mL and 7.64E+07 PFU/mL and 8.20E+07 PFU/mL and 8.13E+07 PFU/mL and 8.84E+07 PFU/mL and 6.70E+07 PFU/mL and 7.30E+07 PFU/mL and 7.92E+07 PFU/mL
  EC50: > 100 µM
  Antiviral efficacy against CVB5: undetectable; also recorded: no antiviral activity was observed
WNV RVPs
  Number of cells infected with RVPs: significantly reduced the number of infected cells
West Nile virus (WNV) [4]
  Specific infectivity of released WNV particles: significant reduction in their infectivity
Vero cells [5]
  Level of dihydrosphingomyelins (dhSMs): significant increase
  dhSM/SM ratio: significantly increased
West Nile virus (WNV) [1]
  SI (CC50/EC50) WNV: >416
Vero cells [6]
  CC50: > 100 µM
West Nile virus (WNV) [7]
  SI (CC50/EC50) WNV: 20.5
Usutu virus (USUV) [8]
  SI (CC50/EC50) USUV: >76.9
Zika virus (ZIKV) [9]
  SI (CC50/EC50) ZIKV: >47.6
Dengue virus (DENV-2) [10]
  SI (CC50/EC50) DENV-2: >10.8
[11]
  SI (CC50/EC50) VSV: >2.3
Vero cells [12]
  Effect on proliferation of Vero cells: only cytostatic effects on Vero cells at high concentrations
In vitro [2]
  CC50: > 100 µM
In vitro [13]
  CC50: 38.9 µM
West Nile virus (WNV) [3]
  EC50: 0.24 µM
West Nile virus (WNV) [14]
  EC50: 1.9 µM
Usutu virus (USUV) [15]
  EC50: 1.3 µM
Zika virus (ZIKV) [16]
  EC50: 2.1 µM
Dengue virus (DENV-2) [17]
  EC50: 9.2 µM
[18]
  EC50: 43 µM
[19]
  IC50: 7.8 µM

## CCCCCCCCCCCCCC1=C([C@H](O)[C@@H](CO)NC(=O)CCCCCCC)C1 [GT-11, N-[(1R,2S)-2-hydroxy-1-hydroxymethyl-2-(2-tridecyl-1-cyclopropenyl)ethyl]octanamide, reference compound]
West Nile virus (WNV) [1]
  WNV infection: inhibited WNV infection in a dose-dependent manner

## O=C(O)c1cc(O)c(O)c(O)c1 [Gallic acid, 3,4,5-trihydroxybenzoic acid, reference compound]
West Nile virus (WNV) [1]; Fig 1B
  WNV yield: slight reduction in the WNV yield
In vitro [2]
  CC50: > 100 µM
West Nile virus (WNV) [3]
  EC50: ~100 µM

## CCCCCCCCCCCCCCC[C@@H](O)[C@H](COP(=O)([O-])OCC[N+](C)(C)C)NC(=O)CCCCCCCCCCC [dhSM, N-Lauroyl-D-erythro-sphinganylphosphorylcholine, reference compound]
West Nile virus (WNV) [1]
  WNV infection: significantly reduced WNV infection in a dose-dependent manner
Vero cells [6]
  Cell viability estimated by ATP measurements: without reducing cell viability

Reference: paper PMC10112131, “Pharmacological Elevation of Cellular Dihydrosphingomyelin Provides a Novel Antiviral Strategy against West Nile Virus Infection” (Antimicrobial Agents and Chemotherapy, 2023)
